Results taken from ChEMBL document CHEMBL4196045, “Identification of cisapride as new inhibitor of putrescine uptake in Trypanosoma cruzi by combined ligand- and structure-based virtual screening” (Eur J Med Chem, 2018).
pIC50: −log10 of the molar value. Activity calls are given as the source filed them. The calls are words filed in the database; no cut-off is given here.

Tests used:
Trypanosoma cruzi [1] = assay: Antitrypanosomal activity against Trypanosoma cruzi Y epimastigotes at 200 uM after 7 days by hemocytometry; assay type: functional, organism-based
[2] = target: T1, Putative amino acid transporter PAT12 (Trypanosoma cruzi) (UniProt Q6QT93); assay: Inhibition of Trypanosoma cruzi Y epimastigotes PAT12 assessed as reduction in initial velocity of [14C]-putrescine uptake at 50 uM in presence of non-radioactive putrescine by liquid scintillation counting method
T1 sequence (whole entry): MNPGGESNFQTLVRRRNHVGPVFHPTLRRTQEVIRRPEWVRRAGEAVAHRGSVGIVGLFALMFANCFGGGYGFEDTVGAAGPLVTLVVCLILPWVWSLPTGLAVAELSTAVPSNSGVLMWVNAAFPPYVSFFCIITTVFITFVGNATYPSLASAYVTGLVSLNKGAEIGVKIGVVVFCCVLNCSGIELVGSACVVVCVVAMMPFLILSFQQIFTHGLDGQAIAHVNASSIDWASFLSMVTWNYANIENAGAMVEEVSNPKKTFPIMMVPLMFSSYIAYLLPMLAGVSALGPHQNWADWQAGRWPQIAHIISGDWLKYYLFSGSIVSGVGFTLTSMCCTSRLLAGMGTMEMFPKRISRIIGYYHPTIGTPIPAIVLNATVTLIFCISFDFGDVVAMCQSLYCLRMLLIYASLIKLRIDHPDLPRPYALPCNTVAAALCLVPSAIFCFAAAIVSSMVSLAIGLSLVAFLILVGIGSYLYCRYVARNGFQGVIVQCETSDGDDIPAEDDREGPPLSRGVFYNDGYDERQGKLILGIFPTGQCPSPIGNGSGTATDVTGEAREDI

Trypanosoma cruzi [3] = assay: Antitrypanosomal activity against Trypanosoma cruzi Y epimastigotes after 7 days by hemocytometry; assay type: functional, organism-based; settings: 168 h
Trypanosoma cruzi [4] = assay: Inhibition of Trypanosoma cruzi Y epimastigotes AAAP411 assessed as reduction in [1,4-14C]-arginine uptake in presence of non-radioactive arginine by liquid scintillation counting method
Trypanosoma cruzi [5] = assay: Antitrypanosomal activity against Trypanosoma cruzi Y epimastigotes at 100 uM after 7 days by hemocytometry; assay type: functional, organism-based

inhibition [2] | pIC50 (Trypanosoma cruzi [3]) | inhibition (Trypanosoma cruzi [4]) | SMILES | Activity (Trypanosoma cruzi [1]) | Activity (Trypanosoma cruzi [5])
inactive | – | – | Cc1cccc(C)c1OCC(C)N (racemic) | inactive | –
inactive | – | – | CN(CCCOc1ccc2c(c1)OCO2)C1CCC(CO)CC1 (stereo not drawn) | inactive | –
inactive | 4.39 | inactive | NCc1ccccc1OC1CCCC1 | – | Active
